Melting point data for 63 compounds are collected here from a melting point compilation (Tetko et al.; mined from patent text by program, amines drawn as free bases though some values may be those of a salt).

In the case of `COc1ccc(/C(=C/C=C/C(=O)O)c2cccs2)cc1`, the melting point lay within 214 to 216 °C.

Compound `CCN(CC)CCNC(=O)c1cccc2c(=O)c(C)c(-c3ccc(OC)cc3)oc12` registered a melting point of 126 to 127 °C.

`O=C(O)CC1CCCCC1Oc1ccc(C(=O)c2ccc(Cl)cc2)cc1` (stereo not drawn): the melting point lay within 130 to 132 °C.

Regarding `CC(C)(C)c1cc(C(N)=O)cc(C(C)(C)C)c1O`, the melting point lay in the range of 263 to 265 °C.

With `CCCN(CCC)C(=O)C(CCC(=O)NC)NC(=O)OCc1ccccc1` (stereo not drawn), the melting point lay within 75 to 76 °C.

Regarding `O=C1C(F)N(c2ccc(Oc3ccccc3)cc2)C(=S)N1c1ccccc1` (stereo not drawn), the melting point came to 126 °C.

In the case of `CO/N=C(\C)c1ccc(Nc2c3ccccc3nc3occc23)cc1`, the melting point was 167 to 168 °C.

In turn, `CCn1cc(C(=O)O)c(=O)c2cnc(N3CCN(CCO)CC3)nc21` gave a melting point of 222 °C.

As for `Cc1ccc(S(=O)(=O)OCC2(C)Cc3cc(Cl)cc(OS(=O)(=O)C(F)(F)F)c3O2)cc1` (stereo not drawn), the melting point was in the range of 100 to 102 °C.

The compound `COc1ccc(NC(C)=S)cc1C` displayed a melting point of 88.5 to 89 °C.

`CC(=Cc1ccc(Cl)cc1Cl)c1ccc(Cl)cc1` came in with a melting point of 84 to 85 °C.

Turning to `CCN1CCc2ccc(Nc3ncc(Cl)c(NCCNS(C)(=O)=O)n3)cc2CC1`, the melting point amounted to 146 °C.

The compound `CC(C)N(CCN(C(=O)N(C)C)c1cccc(N)n1)C(C)C` showed a melting point of 86 to 88 °C.

`CCOC(=O)C1[C@@H]2[C@@H](O)[C@@H]3O[C@H](c4ccc(OC)cc4)OC[C@H]3O[C@H]12` (stereo partly drawn) showed a melting point of 118 to 120 °C.

Turning to `CC(C)(C)CC(=O)N[C@H]1CC[C@H](CCN2CCC(c3cccc4c3CCO4)CC2)CC1`, the melting point was 193 °C.

Regarding `CC(=O)Nc1cc(Cl)c(Cl)cc1NC(=O)Nc1cc(C(F)(F)F)ccc1Cl`, the melting point lay within 262 to 264 °C.

Compound `Cc1cc(C)c2nc(C)n(Cc3ccc(NCC4CCN(C5CCN(C)CC5)CC4)cc3)c2n1` showed a melting point of 118 to 120 °C.

`Cc1cc(Br)nc(Br)c1`: the melting point was found to be 77 °C.

The compound `O=C1Cc2ccc(C3CCCC3)cc2O1` yielded a melting point of 42 to 43 °C.

`N#Cc1cccc(-c2cnn(-c3ccccn3)c2)c1` came in with a melting point of 160 to 161 °C.

In turn, `CC(C)(C)c1nc2cc(N3CCSCC3)c(N)cc2s1` registered a melting point of 170 to 175 °C.

With `Cc1nn(-c2cc(O)c(Cl)cc2F)c(C)c1[N+](=O)[O-]`, the melting point was 157 to 158 °C.

For `COc1cccc2c1C(=O)c1c(OC)cc(Cc3ccccc3C(O)=S)cc1C2=O`, the melting point fell in the range of 235 to 237 °C.

`CC(O)Cn1nc2c3c(cc([N+](=O)[O-])cc31)CCC2` (stereo not drawn) registered a melting point of 147 to 148 °C.

For the compound `CCCCCOC(=O)C1=C(C)NC(C)=C(C(=O)NC(C)C)C1c1ccccc1[N+](=O)[O-]` (stereo not drawn), the melting point is 186 to 189 °C.

`Nc1ncccc1-c1nc2cc(Br)cnc2n1-c1ccc(CNC(=O)c2ccccc2)cc1` registered a melting point of 195 to 197 °C.

For `NC(=O)c1c(C(F)(F)F)oc2cc(O)ccc2c1=O`, the melting point is above 310 °C.

In turn, `Nc1ccc(CCN2CCN(c3ccc(N)cc3Cl)CC2)cc1` yielded a melting point of 109 to 112 °C.

In the case of `COc1ccc(-n2c(C)ccc2-c2ccc(S(N)(=O)=O)cc2)cc1`, the melting point lay in the range of 196 to 197 °C.

`CC1(c2ccccc2)OCC(=O)N(CCCN2C(=O)c3ccccc3C2=O)c2ccc(Cl)cc21` (stereo not drawn) yielded a melting point of 151 to 153 °C.

Compound `CC(C)(C)n1ncc(S)c(Br)c1=O` yielded a melting point of 107 to 110 °C.

`CCc1nc(=O)[nH]c2sccc12` had a melting point of 217 to 220 °C.

Take `Cc1c(F)cccc1NC(=O)CN1CC2CCC(C1)N2S(=O)(=O)c1ccccc1`: the melting point lay within 168 to 169 °C.

`CCN(CC)CCNC(=O)c1ccc(NC(=O)c2ccc3c(c2)OCO3)cc1OC`: the melting point came to 131 °C.

`CC1=NN(C(=O)NS(=O)(=O)c2ncccc2C(F)(F)F)C(c2ccccc2)C1` (stereo not drawn) displayed a melting point of 185 to 187 °C.

In the case of `COC(=O)Cc1ccc(OCC(C)NC(C)C(O)c2ccccc2)cc1` (stereo not drawn), the melting point worked out at 122 °C.

Take `N=C(NC(=O)c1ccccc1)N1CCc2[nH]cnc2C1`: the melting point was found to be 228 °C.

The compound `O=c1nc(-c2cc(-c3ccccc3)ccn2)sc2ccccc12` gave a melting point of 164 to 165 °C.

For the compound `Cc1[nH]c(=O)cnc1-c1ccc(NC(=O)OCc2ccccc2)cc1`, the melting point came out at 232 °C.

Compound `Cc1nc2c3ccccc3ccn2c1CN1CCN(CCO)CC1` showed a melting point of 115 to 117 °C.

In turn, `COc1cc2cn[nH]c(=O)c2cc1OC` displayed a melting point of 254 to 256 °C.

For `Cc1nccn1-c1cc(N)cc(C(F)(F)F)c1`, the melting point was 127 to 131 °C.

The compound `COc1cc(OC)c2c(=O)[nH]c(-c3cc(C)c(O)c(C)c3)nc2c1` had a melting point of 291 to 293 °C.

Consider `O=C(O)Cc1cc(C(=O)Cc2ccccc2Cl)ccc1O`, for which the melting point came to 230 °C.

As to `C/C(=C\c1ccc(OCCN2CCOCC2)cc1)c1ccc2c(c1)C(C)(C)CCC2(C)C`, the melting point was in the range of 107 to 109 °C.

`COc1cc(-c2nc3ccc(OCCCN4CCCCC4)cc3n2Cc2ccccc2C(F)(F)F)cc(OC)c1OC` showed a melting point of 138 °C.

For `CCCCCCCCCCCCS(=O)(=O)c1ccccc1[N+](=O)[O-]`, the melting point was in the range of 47 to 48 °C.

The compound `CCOC(=O)N1CCc2nc3ccccc3c(N3CCCC3)c2CC1` returned a melting point of 111 °C.

`COc1ccc(N2CCN(c3cc4c(cc3-c3ccc(C)cc3)OC(C)(C)C4)CC2)cc1` returned a melting point of 187 to 190 °C.

Take `COCc1ccc(Cl)cc1C(=O)OC`: the melting point was in the range of 44 to 45 °C.

The compound `CC1(C)COc2cc3c(cc21)C1(CO3)C(=O)N(C(c2ccccc2)c2ccccc2)c2ccccc21` (stereo not drawn) came in with a melting point of 190 to 192 °C.

With `O=C(O)c1cnc2cnc3ccccc3n2c1=O`, the melting point was 216 to 218 °C.

`COc1cccc2c(=O)n3nc(C(=O)n4ccnc4)cc3[nH]c12`: the melting point fell in the range of 295 to 300 °C.

For the compound `CC(CCCCC(=O)O)C1CCC2C3CCC4CC(O)CCC4(C)C3CC(O)C12C` (stereo not drawn), the melting point was 191 to 193 °C.

For `O=C1CN=C(c2ccccc2F)c2cc(Cl)ccc2N1`, the melting point was 206 to 207 °C.

As for `CC(=O)NCCCCC(=O)OC1c2ccccc2C(=O)N1c1ccc2ccc(Cl)nc2n1` (stereo not drawn), the melting point was 185 °C.

As to `COc1ccc(CN2CCN(C(=S)C3(C)CCc4c(C)c(O)c(C)c(C)c4O3)CC2)c(OC)c1OC` (stereo not drawn), the melting point is 124 to 125 °C.

The compound `O=C(Nc1ccc(O)cc1)c1ccc(O)cc1` came in with a melting point of 180 to 185 °C.

`Cc1ccc2[nH]c(=O)n3c(=O)[nH]nc3c2c1C` registered a melting point above 350 °C.

Take `c1ccc(Cn2ncc3c2-c2ccccc2C3(Cc2ccncc2)Cc2ccncc2)cc1`: the melting point lay within 154 to 155 °C.

In turn, `CCOC(=O)N1CCN(c2cn(Cc3ccccc3)c3cc(OC)ccc3c2=O)CC1` gave a melting point of 173 to 174 °C.

As to `O=C(Nc1ccc(CN2C(=O)C3CCCC3N(C(=O)CN3C(=O)c4ccccc4C3=O)c3ccccc32)cc1)c1ccc2ccccc2c1` (stereo not drawn), the melting point was in the range of 191 to 194 °C.

The compound `COCc1nnc(SCC(=O)C23CC4CC(CC(C4)C2)C3)n1C` yielded a melting point of 109 to 111 °C.
